Results from US8198263B2, “Vitamin D derivatives active on the vitamin D nuclear receptor, preparation and uses thereof” (Centre National de la Recherche Scientifique, priority 2005, dated 2012).
Where two headings read alike, the source gives them in different places.

How the values were obtained:
[1] = parameters: species or system C57BL/6J mice; conditions: mouse, in vivo, po
Method: FIG. 3: Effects of 1α,25(OH)2D3 and new ligands (compounds A and B) on calcium levels in serum. (FIG. 3.1) Mice were fed either with vehicle (sesame oil), 1α,25(OH)2D3 2 μg/kg, 2 μg/kg compound A or 2 μg/kg compound B during 7 days. (FIG. 3.2) Mice were fed either with vehicle (Veh), 1α,25(OH)2D3 (D3), or compound A during 4 days. Data are presented as mean±SEM. Significant differences are marked as *p<0.05, ***p<0.01.
Male C57BL/6J mice, 6-7 weeks of age, were obtained from Charles River Laboratories France (l'Arbresle, France). All mice were maintained in a temperature-controlled (23° C.) facility with a 12 h light/dark cycle and were given free access to food and water. The mice were fed the EQ12310 diet from UAR (Villemoison sur Orge, France), which contained 16.8% protein, 73.5% carbohydrate and 4.8% fat. The different VDR agonists were dissolved in sesame oil and administered by oral gavage at the indicated doses. The mice were fasted 4 h before harvesting blood for subsequent Calcium measurements, which were performed as described (1).
Thereafter a detailed dose response (0.2, 0.5, 1, and 2 μg/kg) was performed with both 1α,25(OH)2D3, and compound A (FIG. 3.2). In this study compounds were gavaged during 4 consecutive days.

[2] = biological target: T1, human VDR (Homo sapiens, UniProt P11473); experiment: Transfection and transactivation assay (GAL4 DBD-VDR LBD, UAS-TATA-luciferase reporter, 293 EBNA cells); format: cell-based; conditions: for VDR agonist character: summary statement
T1 construct: an expression plasmid of GAL4 DBD-VDR LBD; expressed in transfected cells; host or cells: 293 EBNA cells
T1 sequence (P11473 127-423 limits assumed): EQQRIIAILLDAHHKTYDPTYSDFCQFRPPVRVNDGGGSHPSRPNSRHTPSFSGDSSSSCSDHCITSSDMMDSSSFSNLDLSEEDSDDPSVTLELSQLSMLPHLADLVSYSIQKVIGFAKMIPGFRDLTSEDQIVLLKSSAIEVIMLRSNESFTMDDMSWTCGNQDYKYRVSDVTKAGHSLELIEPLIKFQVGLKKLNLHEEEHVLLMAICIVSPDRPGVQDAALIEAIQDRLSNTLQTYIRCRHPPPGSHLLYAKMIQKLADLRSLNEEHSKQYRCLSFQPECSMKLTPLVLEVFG
From the text: FIG. 2: Transcriptional activation of VDR by 1α,25(OH)2D3, compound A and compound B. 293 EBNA cells were transiently transfected with a UAS-TATA-luciferase reporter plasmid and an expression plasmid of GAL4 DBD-VDR LBD and subsequently treated with 1α,25(OH)2D3, compound A (A), and compound B (B) at 10^−10 and 10^−9M. Luciferase activity for each sample was normalized to the β-galactosidase activity. Data is shown as fold induction of agonist induced luciferase activity divided by luciferase activity of vehicle.
The human VDR LBD was subcloned into the pG4M derived plasmid as a Gal fusion protein. Transient transfection experiments for the analysis of VDR activation were performed in 48 wells plates, using a standard calcium phosphate coprecipitation technique as described (11). 293 EBNA cells were seeded (6.0×10^4 cells per well) and incubated for 24 hours at 37° C. in medium containing Dulbecco medium (DMEM+1 g/L glucose), 10% FCS, gentamycine and 1 mg/ml G418 (geneticin). 293 EBNA cells were transiently transfected with 12.5 ng of Gal-4-VDR LBD plasmid, 10 ng of UAS-TATA-luciferase reporter plasmid, and 37.5 ng of PCH110 internal control recombinant expressing β-galactoside plasmid. After cells were incubated for 8 hours at 37° C., the medium was replaced and the compounds were added in optimized serial dilutions. After 20 hours at 37° C., cells were washed with PBS and harvested in Passiv lysis buffer (Promega). The cell lysates were assayed for lusiferase and β-galactosidase activity. Luciferase activity for each sample was normalized to β-galactosidase activity. Cells were treated with 1α, 25(OH)2D3, compound A, and compound B. All experiments were performed in duplicates.

SMILES | dose at which the effect on serum calcium levels became significant / caused hypercalcemia [1] | transcriptional activities of human VDR induced, times more efficiently than 1α,25(OH)2D3 ([2]; at 10^−10 M, 293 EBNA cells, luciferase normalized to β-galactosidase) | VDR agonist character [2] | dose at which the effect on serum calcium levels became significant / caused hypercalcemia ([1]; male, C57BL/6J, 4 days) | effect on serum calcium levels compared with 1α,25(OH)2D3 [1]
C=C1/C(=C\C=C2/CCC[C@]3(C)[C@@H]([C@H](C)CCCC(C)(C)O)CC[C@@H]23)C[C@@H](O)C[C@@H]1O [1α,25(OH)2D3, reference compound] | 1 µg/kg |  |  |  | 
C=C1/C(=C\C=C2/CCC[C@@]3(C)[C@H]2CC[C@@H]3[C@]2(C)C[C@H](CC(C)(C)O)CO2)C[C@@H](O)C[C@@H]1O [compound A, (1R,3S,5Z)-5-((E)-2-((1S,3aS,7aS)-hexahydro-1-((2S,4S)-tetrahydro-4-(2-hydroxy-2-methylpropyl)-2-methylfuran-2-yl)-7a-methyl-1H-inden-4(7aH)-ylidene)ethylidene)-4-methylenecyclohexane-1,3-diol] |  | 12 times | superagonist activity | 2 µg/kg | weaker effect on serum calcium levels
C=C1/C(=C\C=C2/CCC[C@@]3(C)[C@H]2CC[C@@H]3[C@]2(C)C[C@@H](CC(C)(C)O)CO2)C[C@@H](O)C[C@@H]1O [compound B, (1R,3S,5Z)-5-((E)-2-((1S,3aS,7aS)-hexahydro-1-((2S,4R)-tetrahydro-4-(2-hydroxy-2-methylpropyl)-2-methylfuran-2-yl)-7a-methyl-1H-inden-4(7aH)-ylidene)ethylidene)-4-methylenecyclohexane-1,3-diol] |  |  | behaves like 1α,25(OH)2D3 |  | 
